According to PubChem BioAssay (NCI):
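Tested at 5 concentrations; 48 h exposure; 96-well plates; endpoints linearly interpolated, else capped at highest concentration. The concentration for full growth arrest is given as TGI.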

Assays:
Test in all cases: DTP human tumour cell line panel, 48 h
[1] = system: 786-0 renal
[2] = system: A498 renal
[3] = system: A549 NSCLC
[4] = system: ACHN renal
[5] = system: CAKI-1 renal
[6] = system: CCRF-CEM leukemia
[7] = system: DLD-1 colon
[8] = system: DMS 114 small cell lung
[9] = system: DMS 273 small cell lung
[10] = system: EKVX NSCLC
[11] = system: HCC-2998 colon
[12] = system: HCT-116 colon
[13] = system: HCT-15 colon
[14] = system: HL-60(TB) leukemia
[15] = system: HOP-62 NSCLC
[16] = system: HT29 colon
[17] = system: IGROV1 ovarian
[18] = system: KM12 colon
[19] = system: KM20L2 colon
[20] = system: LXFL 529 NSCLC
[21] = system: M14 melanoma
[22] = system: M19-MEL melanoma
[23] = system: MALME-3M melanoma
[24] = system: NCI-H226 lung
[25] = system: NCI-H23 lung
[26] = system: NCI-H460 lung
[27] = system: OVCAR-3 ovarian
[28] = system: OVCAR-4 ovarian
[29] = system: OVCAR-5 ovarian
[30] = system: OVCAR-8 ovarian
[31] = system: RPMI-8226 leukemia
[32] = system: RXF 393 renal
[33] = system: SF-295 CNS
[34] = system: SF-539 CNS
[35] = system: SK-MEL-2 melanoma
[36] = system: SK-MEL-28 melanoma
[37] = system: SK-MEL-5 melanoma
[38] = system: SK-OV-3 ovarian
[39] = system: SNB-75 CNS
[40] = system: SNB-78 CNS
[41] = system: SW-620 colon
[42] = system: TK-10 renal
[43] = system: U251 CNS
[44] = system: UACC-257 melanoma
[45] = system: UACC-62 melanoma
[46] = system: UO-31 renal
[47] = system: XF 498 CNS

CC(=O)O[C@H]1CC[C@@]2(C)C(=CC[C@@H]3C2CC[C@]2(C)Nc4c(cnn4-c4ccccc4)CC32)C1 (some centres not stated) was tested, and the TGI [1] was 36.6 µM, the TGI [2] was 51.9 µM and the TGI [3] was over 100 µM. For the same compound, the TGI [4] was over 100 µM, the TGI [5] was over 100 µM and the TGI [6] was over 100 µM. For the same compound, the TGI [7] was over 100 µM, the TGI [8] was over 100 µM and the TGI [9] was 18.4 µM. It also gave a TGI [10] of over 100 µM, a TGI [11] of 70.8 µM and a TGI [12] of over 100 µM. For the same compound, the TGI [13] was over 100 µM, the TGI [14] was over 100 µM and the TGI [15] was 63.9 µM. It also gave a TGI [16] of over 100 µM, a TGI [17] of over 100 µM and a TGI [18] of 69.8 µM. For the same compound, the TGI [19] was over 100 µM, the TGI [20] was over 100 µM and the TGI [21] was over 100 µM. The TGI [22] was over 100 µM, the TGI [23] was over 100 µM and the TGI [24] was over 100 µM. The TGI [25] was over 100 µM, the TGI [26] was over 100 µM and the TGI [27] was over 100 µM. It also gave a TGI [28] of 66.9 µM, a TGI [29] of over 100 µM and a TGI [30] of over 100 µM. It also gave a TGI [31] of 6.62 µM, a TGI [32] of 42.2 µM and a TGI [33] of 8.52 µM. For the same compound, the TGI [34] was 9.12 µM, the TGI [35] was over 100 µM and the TGI [36] was over 100 µM. It also gave a TGI [37] of over 100 µM, a TGI [38] of over 100 µM and a TGI [39] of 30.8 µM. The TGI [40] was over 100 µM, the TGI [41] was over 100 µM and the TGI [42] was over 100 µM. It also gave a TGI [43] of over 100 µM, a TGI [44] of over 100 µM and a TGI [45] of over 100 µM. It also gave a TGI [46] of 84 µM and a TGI [47] of over 100 µM.
